Reference: article PMC7242711, “An integrated approach to unravel a crucial structural property required for the function of the insect steroidogenic Halloween protein Noppera-bo” (The Journal of Biological Chemistry, 2020)

Columns and labels:
DmGSTE9 = target: T1, DmGSTE9 (Drosophila melanogaster, UniProt A1ZB74); test: fluorogenic GSH conjugation assay with […],4-DNADCF; type: biochemical
T1 construct: gene GstE9; full-length CDS, pCold-III, N-terminal MNHKV kept; E. coli BL21(DE3)
T1 sequence (A1ZB74 1-221): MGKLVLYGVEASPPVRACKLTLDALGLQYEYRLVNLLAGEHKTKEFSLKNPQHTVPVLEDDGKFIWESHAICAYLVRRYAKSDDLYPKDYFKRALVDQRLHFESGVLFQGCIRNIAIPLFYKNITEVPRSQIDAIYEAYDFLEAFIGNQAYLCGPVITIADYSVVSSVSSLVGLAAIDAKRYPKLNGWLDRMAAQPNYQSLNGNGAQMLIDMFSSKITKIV

DmNobo [1] = target: T2, DmNobo (Drosophila melanogaster, UniProt Q7JYX0); test: SPR, Biacore T200, protein immobilised on CM5 chip by amine coupling; type: binding
T2 construct: gene GstE14; full-length CDS, pCold-III, N-terminal translation enhancing element MNHKV kept; E. coli BL21(DE3); homodimer
Text: SPR, Biacore T200, protein immobilised on CM5 chip by amine coupling on DmNobo | Kd values between DmNobo WT and EST in the presence or absence of GSH were […]

DmNobo [2] = target: T2, DmNobo; test: fluorogenic GSH conjugation assay with […],4-DNADCF; type: biochemical; details: 1 mM GSH, 1 μM 3,4-DNADCF (final, after equal-volume mixing), 100 mM sodium phosphate pH 6.5, 0.01% Tween 20; H-site
DmGSTE6 = target: T3, DmGSTE6 (Drosophila melanogaster, UniProt A1ZB71); test: fluorogenic GSH conjugation assay with […],4-DNADCF; type: biochemical
T3 construct: gene GstE6; full-length CDS, pCold-III, N-terminal MNHKV kept; E. coli BL21(DE3)
T3 sequence (A1ZB71 1-222): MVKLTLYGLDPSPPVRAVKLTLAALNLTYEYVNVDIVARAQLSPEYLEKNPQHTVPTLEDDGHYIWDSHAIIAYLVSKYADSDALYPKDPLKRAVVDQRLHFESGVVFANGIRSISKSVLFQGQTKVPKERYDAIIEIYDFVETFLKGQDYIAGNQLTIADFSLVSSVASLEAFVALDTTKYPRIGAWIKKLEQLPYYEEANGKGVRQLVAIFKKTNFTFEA

AgNobo [3] = target: T4, AgNobo (Anopheles gambiae, UniProt Q8WQJ5); test: fluorogenic GSH conjugation assay with […],4-DNADCF; type: biochemical
T4 construct: gene GSTe8; full-length CDS, pCold-III, N-terminal MNHKV kept; E. coli BL21(DE3)
T4 sequence (Q8WQJ5 1-217): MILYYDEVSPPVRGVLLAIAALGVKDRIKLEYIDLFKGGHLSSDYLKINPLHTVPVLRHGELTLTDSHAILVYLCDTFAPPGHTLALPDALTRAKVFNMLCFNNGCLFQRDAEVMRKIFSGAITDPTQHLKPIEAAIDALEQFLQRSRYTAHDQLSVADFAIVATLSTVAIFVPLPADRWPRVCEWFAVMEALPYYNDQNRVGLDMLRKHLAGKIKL

DmNobo [4] = target: T5, DmNobo (Drosophila melanogaster, UniProt Q7JYX0, D113A); test: fluorogenic GSH conjugation assay with […],4-DNADCF; type: biochemical
T5 construct: gene GstE14; full-length CDS, pCold-III, N-terminal translation enhancing element MNHKV kept; E. coli BL21(DE3); homodimer

AgNobo [5] = target: T6, AgNobo (Anopheles gambiae, UniProt Q8WQJ5, D111A); test: fluorogenic GSH conjugation assay with […],4-DNADCF; type: biochemical
T6 construct: gene GSTe8; full-length CDS, pCold-III, N-terminal MNHKV kept; E. coli BL21(DE3)
T6 sequence (Q8WQJ5 1-217 D111A): T4 sequence (Q8WQJ5 1-217)

T2 sequence (Q7JYX0 whole entry): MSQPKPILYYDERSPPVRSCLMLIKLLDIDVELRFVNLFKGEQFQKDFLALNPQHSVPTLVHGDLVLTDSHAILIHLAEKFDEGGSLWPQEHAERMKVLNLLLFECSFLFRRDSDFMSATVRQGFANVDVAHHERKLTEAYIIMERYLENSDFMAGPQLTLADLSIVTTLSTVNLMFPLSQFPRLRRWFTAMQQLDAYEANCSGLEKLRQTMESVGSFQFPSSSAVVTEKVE
T5 sequence (Q7JYX0 whole entry D113A): as the sequence (Q7JYX0 whole entry) above, with D113A counted along it

## C[C@]12CC[C@@H]3c4ccc(O)cc4CC[C@H]3[C@@H]1CC[C@@H]2O [17β-estradiol]
DmGSTE9
  IC50: > 25000 nM
DmNobo [1]
  Kd: 480 ± 100 nM
DmNobo [2]
  IC50: 2330 nM
DmGSTE6
  IC50: > 25000 nM
AgNobo [3]
  IC50: 2070 nM
DmNobo [4]
  IC50: > 25000 nM
AgNobo [5]
  IC50: > 25000 nM
